Laboratory results reported in patent publication US20190311703A1, “ACOUSTIC TRAUMA SYSTEM FOR LARVAL FISH” (WASHINGTON STATE UNIVERSITY, priority 2018, published 2019).
Entries after “also recorded” stand apart in the source; their conditions may differ. Where two headings read alike, the source gives them in different places. Where a SMILES comes first, the peptide text is derived from it. The star is where a group is joined. Cbz = O=C(OCc1ccccc1)*; CH2F = FC*

How the values were obtained:
lateral line hair cells = assay: Cavitation (acoustic trauma)-induced lateral line hair cell damage in larval zebrafish, hair cell survival assessment; assay type: in vivo; settings: for protection from cavitation-induced hair cell damage (hair cell survival score vs DMSO control): blinded mini-screen of select redox library compounds, FIG. 12B
Procedure: At 5 days post-fertilization (dpf), fish were fed a light dusting of GEMMA micro 75 while in petri dishes. All noise exposure experiments were conducted at 6 dpf. Larval zebrafish were placed into wells A2-A5 and D2-D5 of a modified 24-well plate (3 fish per well) containing fish water and suspended atop 22 cm of water within the container 2 (stainless-steel canister) with the bottom of the 1 cm of the well plate 5 submerged (as generally shown in FIG. 1). While the well plate is disclosed often with the bottom of the plate being submerged, it is also to be understood that the entire well plate may be submerged without departing from the scope of the invention. Fish were exposed to cavitation for periods ranging from 20 to 120 minutes.
Immediately following cavitation fish were transferred to a 6-well plate 5 (6 fish per well) and kept in the fish facility on a 14 h light/10 h dark cycle for up to 5 post-exposure days. Each post-exposure morning (9-10 am) 50% of fish water was exchanged with fresh fish water and fish were lightly dusted with GEMMA food. Each post-exposure day evening (5-6 pm) fish were transferred to a fresh 6-well plate with completely fresh fish water.
Survival of lateral line hair cells was assessed by vital dye labeling in live fish and direct hair cells counts in live and fixed animals. The vital dye 2-(4-(dimethylamino)styryl)-N-ethylpyridinium iodide (DASPEI) is a marker of mitochondria membrane potential and stains lateral line hair cells. Fish were incubated in 0.005% DASPEI for 15 min, then rinsed twice with fish water and anesthetized with 0.001% MS-222. Using a Leica M165FC fluorescence dissection scope, 10 anterior neuromasts (IO1, IO2, IO3, IO4, M2, MI1, MI2, O2, SO1, and SO2) per fish were assessed based on fluorescent intensity. An intensity score of 2 signifies bright neuromast fluorescence, an intermediate score of 1 represents dim DASPEI labeling, while a 0 neuromast score equates to no neuromast fluorescence at a given neuromast's stereotyped position. The scores from 10 neuromasts per fish were summed such that each fish receives a score between 0 (no neuromast fluorescence) and 20 (full complement of hair cells in all 10 neuromasts).
All inhibitors (to test roles of cell death (including apoptosis, pyroptosis and necroptosis) and inflammation, were added to 6-well plates immediately after cavitation-exposed fish were removed from the device. Inhibitors were refreshed during the same intervals as fish water (twice daily) until the end of the desired exposure window. To test the role of protein synthesis, fish were pulse treated immediately after acoustic trauma for 4 h with the protein synthesis inhibitor cycloheximide (C7698; Sigma Aldrich). In separate experiments, acoustic trauma-exposed fish were continuously treated with either the pan caspase inhibitor Z-VAD-FMK ([…]; Sigma Aldrich) or the antioxidant D-methionine (F7111; UBPBio) to assess the contribution of caspase activation and ROS overproduction, respectively, in the acoustically stimulated lateral line. A small blinded screen was also conducted of select compounds from a larger redox library (BML-2835-0100; Enzo Life Sciences). Compounds chosen had either known protective effects in mammalian models of NIHL (as proof-of concept) or had not been previously tested against NIHL (to identify new protective molecules).

cochlear hair cells [1] = settings: mice; cited from earlier work
cochlear hair cells [2] = settings: guinea pigs; cited from earlier work
[3] = cited from earlier work
hair cells = settings: intracochlear perfusion, guinea pigs; cited from earlier work

**Q.** Which “protection from cavitation-induced hair cell damage (hair cell survival)” value (from here on “protection … (hair cell survival)”) (lateral line hair cells; 100 μM, FIG. 12A) does the source give for CSCC[C@@H](N)C(=O)O [D-methionine] here?
**A.** Its value is “protected lateral line hair cells from cavitation damage”.

**Q.** What about the “protection … (hair cell survival)” value (lateral line hair cells; 500 μM, FIG. 12A) of the same compound?
**A.** The value was “protected lateral line hair cells from cavitation damage”.

**Q.** What about the “protection … (hair cell survival)” value (lateral line hair cells; 72 hour treatment, concentration not stated at place, FIG. 12A) of the same compound?
**A.** Its value is “protects lateral line hair cells from cavitation”.

**Q.** What about the “protection … (hair cell survival)” value (lateral line hair cells; 72 hour treatment, concentration not stated at place, FIG. 12A, listed as D-Methionine) of the same compound?
**A.** The value was “robustly protects lateral line hair cells from cavitation”.

**Q.** And the “protection of cochlear hair cells from acoustic trauma” value (cochlear hair cells [1])?
**A.** Its value is “protects cochlear hair cells”.

**Q.** What about the “protection of cochlear hair cells from acoustic trauma” value (cochlear hair cells [2]) of the same compound?
**A.** The value was “protects cochlear hair cells”.

**Q.** With CC(=O)N[C@@H](CS)C(=O)O [N-acetylcysteine] as the compound, how does the “prevention of NIHL, clinical trial outcome” value [3] read?
**A.** Its value is “failed to meet clinical endpoints”.

**Q.** With COC(=O)C[C@H](NC(=O)[C@H](C)NC(=O)[C@@H](NC(=O)OCc1ccccc1)C(C)C)C(=O)CF [Z-VAD, Z-VAD-FMK] (Cbz-Val-Ala-Asp(OMe)-CH2F) as the compound, how does the “hair cell loss following blast noise trauma” value (hair cells) read?
**A.** The value was “reduces hair cell loss”.

**Q.** And the “protection … (hair cell survival)” value (lateral line hair cells; 1 μM, treatment for entire 72-hour post-exposure window, FIG. 11B)?
**A.** The value was “significantly reduced cavitation-induced hair cell damage”.

**Q.** And the “protection … (hair cell survival)” value (lateral line hair cells; 72-h treatment starting immediately after acoustic stimulation, concentration not stated, FIG. 11B)?
**A.** The value was “reduced cavitation-induced lateral line hair cell damage; also recorded: robustly protects hair cells from damage”.

**Q.** Which “protection from cavitation-induced hair cell damage (hair cell survival score vs DMSO control)” value (lateral line hair cells) does the source give for O=c1cc(-c2ccccc2)oc2cc(O)c(O)c(O)c12 [baicalein] here?
**A.** Its value is “significantly protected lateral line hair cells from cavitation-induced hair cell damage”.

**Q.** Which “protection from cavitation-induced hair cell damage (hair cell survival score vs DMSO control)” value (lateral line hair cells) does the source give for CCCCS(=N)(=O)CCC(N)C(=O)O (centres unmarked) [buthionine sulfoximine] here?
**A.** The value was “did not confer protection”.

**Q.** Which results are given for C[C@@H]1C[C@@H]([C@H](O)CC2CC(=O)NC(=O)C2)C(=O)[C@@H](C)C1 [cycloheximide]?
**A.** protection from cavitation-induced hair cell damage (hair cell survival) (lateral line hair cells; 4 h pulse treatment immediately after acoustic stimulation, assessed 72 h post-exposure, FIG. 11A): prevented hair cell loss; also recorded: reduces hair cell damage; protection from cavitation-induced hair cell damage (hair cell survival) (lateral line hair cells; 4 h pulse treatment immediately after acoustic stimulation, assessed 72 h post-exposure, FIG. 11A, listed as Cycloheximide): protected lateral line hair cells from cavitation in a dose-dependent manner

**Q.** With CC1=C(C)C(=O)C(CC[C@](C)(O)CCC[C@H](C)CCC[C@H](C)CCCC(C)C)=C(C)C1=O [d-α-tocopherylquinone] as the compound, how does the “protection from cavitation-induced hair cell damage (hair cell survival score vs DMSO control)” value (lateral line hair cells) read?
**A.** Its value is “significantly protected lateral line hair cells from cavitation-induced hair cell damage”.

**Q.** For CCOC(=O)/C=C/c1ccc(O)c(OC)c1 [ferulic acid ethylester], which “protection from cavitation-induced hair cell damage (hair cell survival score vs DMSO control)” value (lateral line hair cells) is on record?
**A.** The value was “significantly protected lateral line hair cells from cavitation-induced hair cell damage”.

**Q.** With N[C@@H](CCC(=O)N[C@@H](CS)C(=O)NCC(=O)O)C(=O)O [glutathione] as the compound, how does the “protection from cavitation-induced hair cell damage (hair cell survival score vs DMSO control)” value (lateral line hair cells) read?
**A.** The value was “significantly protected lateral line hair cells from cavitation-induced hair cell damage”.
